# Measured values from US5883121A, “Epoxysuccinamide derivative or salt thereof, and medicine comprising the same” (Taiho Pharmaceutical Co., Ltd., priority 1995, dated 1999).
# Where a name gives a salt, the structure may show the parent alone.
# Key:
# [1] = molecular target: T1, cathepsin L (Rattus norvegicus, UniProt P07154); assay: Determination of inhibition rate against cathepsin L; type: biochemical; conditions: for IC50: cathepsin L from rat liver, substrate Z-Phe-Arg-MCA, pH 5.5, 30° C, 10 minutes; for B/L: IC50 against cathepsin B divided by IC50 against cathepsin L
# T1 construct: extracted from a rat liver and completely purified; from tissue; host or cells: rat liver
# T1 sequence (P07154 114-288 limits assumed): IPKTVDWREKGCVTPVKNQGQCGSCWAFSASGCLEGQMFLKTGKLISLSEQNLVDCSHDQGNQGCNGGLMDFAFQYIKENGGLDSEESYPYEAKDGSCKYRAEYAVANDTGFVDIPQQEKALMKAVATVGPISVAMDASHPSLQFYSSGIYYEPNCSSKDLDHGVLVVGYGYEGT
# T1 sequence (P07154 291-334 limits assumed): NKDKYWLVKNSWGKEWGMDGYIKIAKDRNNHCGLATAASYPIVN
# Experimental: (§1) Determination of inhibition rate against cathepsin L, B and H […]
# (§2) Each cathepsin was diluted with a diluent (0.1% Brij 35) to adjust its concentration to 0.3 U (0.1 U: a concentration at which 1.0 nmol of MCA is released per minute at 37° C.). To 500 μl of this solution, were added 250 μl of an activator/buffer (340 mM sodium acetate, 60 mM acetic acid, 4 mM disodium EDTA; pH 5.5). After the mixture was incubated for 1 minute at 30° C., the sample solution of the predetermined concentration and […] of a substrate solution were added to conduct a reaction for 10 minutes.
# [2] = molecular target: T2, cathepsin B (Rattus norvegicus, UniProt P00787); assay: Determination of inhibition rate against cathepsin B; type: biochemical; conditions: cathepsin B from rat liver; substrate Z-Arg-Arg-MCA; pH 5.5; 30° C; 10 minutes
# T2 construct: extracted from a rat liver and completely purified; from tissue; host or cells: rat liver
# T2 sequence (P00787 129-333 limits assumed): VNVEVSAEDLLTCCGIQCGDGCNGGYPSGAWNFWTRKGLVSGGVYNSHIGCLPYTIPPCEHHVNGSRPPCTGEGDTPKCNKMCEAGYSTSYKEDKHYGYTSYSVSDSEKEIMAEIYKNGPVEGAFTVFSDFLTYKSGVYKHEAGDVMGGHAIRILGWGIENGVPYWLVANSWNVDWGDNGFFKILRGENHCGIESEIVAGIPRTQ
# T2 sequence (P00787 80-126 limits assumed): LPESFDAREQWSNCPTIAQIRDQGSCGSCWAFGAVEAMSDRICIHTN
# Experimental: as §1, §2
IC50 [1],B/L [1],IC50 [2],Compound
960 nM,,,"NCCCC[C@H](NC(=O)[C@H]1O[C@@H]1C(=O)NCCc1ccccc1)C(=O)NC1c2ccccc2-c2ccccc21 [Example 6, Nα-[L-3-trans-(2-phenylethylcarbamoyl)oxirane-2-carbonyl]-L-lysine-9-fluorenylamide hydrochloride]"
870 nM,,,"NCCCC[C@H](NC(=O)[C@H]1O[C@@H]1C(=O)NC1Cc2ccccc2C1)C(=O)NC1c2ccccc2-c2ccccc21 [Example 10, Nα-[L-3-trans-(2-indanylcarbamoyl)oxirane-2-carbonyl]-L-lysine-9-fluorenylamide hydrochloride]"
40 nM,> 250,> 10000 nM,"NCCCC[C@H](NC(=O)[C@H]1O[C@@H]1C(=O)NC1Cc2ccccc2C1)C(=O)Nc1cccc2ccccc12 [Example 12, Nα-[L-3-trans-(2-indanylcarbamoyl)oxirane-2-carbonyl]-L-lysine-1-naphthylamide hydrochloride]"
220 nM,,,"NCCCC[C@H](NC(=O)[C@H]1O[C@@H]1C(=O)N[C@@H](Cc1ccccc1)C(N)=O)C(=O)N(Cc1ccccc1)Cc1ccccc1 [Example 16, Nα-{L-3-trans-[(S)-1-carbamoyl-2-phenylethylcarbamoyl]oxirane-2-carbonyl}-L-lysine dibenzylamide hydrochloride]"
0.03 nM,70000,2100 nM,"NCCCC[C@H](NC(=O)[C@H]1O[C@@H]1C(=O)N[C@@H](Cc1ccccc1)C(=O)NCCc1ccccc1)C(=O)Nc1cccc2ccccc12 [Example 24, Nα-{L-3-trans-[(S)-1-(2-phenylethylcarbamoyl)-2-phenylethylcarbamoyl]oxirane-2-carbonyl}-L-lysine-1-naphthylamide hydrochloride]"
7 nM,,,"CC(=O)NCCCC[C@H](NC(=O)[C@H]1O[C@@H]1C(=O)N[C@@H](Cc1ccccc1)C(N)=O)C(=O)Nc1cccc2ccccc12 [Example 31, Nα-{L-3-trans-[(S)-1-carbamoyl-2-phenylethylcarbamoyl]oxirane-2-carbonyl)-Nε-acetyl-L-lysine-1-naphthylamide]"
1.7 nM,6470,11000 nM,"NCCCC[C@H](NC(=O)[C@H]1O[C@@H]1C(=O)N[C@@H](Cc1ccccc1)C(=O)NCCc1ccccc1)C(=O)Nc1ccccc1 [Example 35, Nα-{L-3-trans-[(S)-1-(2-phenylethylcarbamoyl)-2-phenylethylcarbamoyl]oxirane-2-carbonyl}-L-lysine anilide hydrochloride]"
6.4 nM,3906,25000 nM,"COc1ccccc1NC(=O)[C@H](CCCCN)NC(=O)[C@H]1O[C@@H]1C(=O)N[C@@H](Cc1ccccc1)C(N)=O [Example 37, Nα-{L-3-trans-[(S)-1-carbamoyl-2-phenylethylcarbamoyl]oxirane-2-carbonyl}-L-lysine-2-methoxyanilide hydrochloride]"
1.6 nM,7500,12000 nM,"COc1ccccc1NC(=O)[C@H](CCCCN)NC(=O)[C@H]1O[C@@H]1C(=O)N[C@@H](Cc1ccccc1)C(=O)NCCc1ccccc1 [Example 39, Nα-{L-3-trans-[(S)-1-(2-phenylethylcarbamoyl)-2-phenylethylcarbamoyl]oxirane-2-carbonyl}-L-lysine-2-methoxyanilide hydrochloride]"
3 nM,30000,90000 nM,"NCCCC[C@H](NC(=O)[C@H]1O[C@@H]1C(=O)N[C@@H](Cc1ccccc1)C(=O)NCCc1ccccc1)C(=O)Nc1ccccc1C(F)(F)F [Example 43, Nα-{L-3-trans-[(S)-1-(2-phenylethylcarbamoyl)-2-phenylethylcarbamoyl]oxirane-2-carbonyl)-L-lysine-2-trifluoromethylanilide hydrochloride]"
70 nM,571,40000 nM,"NCCCC[C@H](NC(=O)[C@H]1O[C@@H]1C(=O)N[C@@H](Cc1ccccc1)C(N)=O)C(=O)N1CCc2ccccc21 [Example 45, Nα-{L-3-trans-[(S)-1-carbamoyl-2-phenylethylcarbamoyl]oxirane-2-carbonyl}-L-lysine indolinylamide hydrochloride]"
0.1 nM,150000,15000 nM,"NCCCC[C@H](NC(=O)[C@H]1O[C@@H]1C(=O)N[C@@H](Cc1ccccc1)C(=O)NCCc1ccccc1)C(=O)N1CCc2ccccc21 [Example 47, Nα-{L-3-trans-[(S)-1-(2-phenylethylcarbamoyl)-2-phenylethylcarbamoyl]oxirane-2-carbonyl}-L-lysine indolinylamide hydrochloride]"
,7045,3100 nM,"NCCCC[C@H](NC(=O)[C@H]1O[C@@H]1C(=O)N[C@@H](Cc1ccccc1)C(N)=O)C(=O)Nc1ccc(Cl)c2ccccc12 [Example 48, Nα-{L-3-trans-[(S)-1-carbamoyl-2-phenylethylcarbamoyl]oxirane-2-carbonyl}-L-lysine-1-(4-chloronaphthyl)amide hydrochloride]"
1.7 nM,1176,2000 nM,"NCCCC[C@H](NC(=O)[C@H]1O[C@@H]1C(=O)N[C@@H](Cc1ccccc1)C(=O)NCCc1ccccc1)C(=O)Nc1ccc(Cl)c2ccccc12 [Example 49, Nα-{L-3-trans-[(S)-1-(2-phenylethylcarbamoyl)-2-phenylethylcarbamoyl]oxirane-2-carbonyl}-L-lysine-1-(4-chloronaphthyl)amide hydrochloride]"
< 0.1 nM,> 85000,8500 nM,"CCCNC(=O)[C@H](Cc1ccccc1)NC(=O)[C@H]1O[C@@H]1C(=O)N[C@@H](CCCCN)C(=O)Nc1cccc2ccccc12 [Example 51, Nα-{L-3-trans-[(S)-1-propylcarbamoyl-2-phenylethylcarbamoyl]oxirane-2-carbonyl-L-lysine-1-naphthylamide hydrochloride]"
90 nM,333,30000 nM,"NCCCC[C@H](NC(=O)[C@H]1O[C@@H]1C(=O)N[C@H](Cc1ccccc1)C(=O)NCCc1ccccc1)C(=O)Nc1cccc2ccccc12 [Example 53, Nα-{L-3-trans-[(R)-1-(2-phenylethylcarbamoyl)-2-phenylethylcarbamoyl]oxirane-2-carbonyl}-L-lysine-1-naphthylamide hydrochloride]"
18 nM,2444,44000 nM,"NCCCC[C@H](NC(=O)[C@H]1O[C@@H]1C(=O)N[C@@H](Cc1ccccc1)C(N)=O)C(=O)Nc1ccccc1 [Example 55, Nα-{L-3-trans-[(S)-1-carbamoyl-2-phenylethylcarbamoyl]oxirane-2-carbonyl}-Nε-L-lysine anilide hydrochloride]"
9 nM,> 11111,> 10000 nM,"NCCCC[C@H](NC(=O)[C@H]1O[C@@H]1C(=O)N[C@@H](Cc1ccccc1)C(=O)Nc1ccccc1)C(=O)Nc1cccc2ccccc12 [Example 57, Nα-{L-3-trans-[(S)-1-phenylcarbamoyl-2-phenylethylcarbamoyl]oxirane-2-carbonyl}-L-lysine-1-naphthylamide hydrochloride]"
2.7 nM,> 3703,> 10000 nM,"CCCNC(=O)[C@H](Cc1ccccc1)NC(=O)[C@H]1O[C@@H]1C(=O)N[C@@H](CCCCN)C(=O)Nc1ccccc1 [Example 59, Nα-{L-3-trans-[(S)-1-propylcarbamoyl-2-phenylethylcarbamoyl]oxirane-2-carbonyl}-L-lysine anilide hydrochloride]"
2.8 nM,> 3571,> 10000 nM,"CC(C)NC(=O)[C@H](Cc1ccccc1)NC(=O)[C@H]1O[C@@H]1C(=O)N[C@@H](CCCCN)C(=O)Nc1ccccc1 [Example 61, Nα-{L-3-trans-[(S)-1-isopropylcarbamoyl-2-phenylethylcarbamoyl]oxirane-2-carbonyl}-L-lysine anilide hydrochloride]"
5.2 nM,1923,> 10000 nM,"CNC(=O)[C@H](Cc1ccccc1)NC(=O)[C@H]1O[C@@H]1C(=O)N[C@@H](CCCCN)C(=O)Nc1ccccc1 [Example 63, Nα-{L-3-trans-[(S)-1-methylcarbamoyl-2-phenylethylcarbamoyl]oxirane-2-carbonyl}-L-lysine anilide hydrochloride]"
30 nM,> 333,> 10000 nM,"CN(C)C(=O)[C@H](Cc1ccccc1)NC(=O)[C@H]1O[C@@H]1C(=O)N[C@@H](CCCCN)C(=O)Nc1ccccc1 [Example 65, Nα-{L-3-trans-[(S)-1-dimethylcarbamoyl-2-phenylethylcarbamoyl]oxirane-2-carbonyl}-L-lysine anilide hydrochloride]"
36 nM,1570,68000 nM,"CCNC(=O)[C@H](Cc1ccccc1)NC(=O)[C@H]1O[C@@H]1C(=O)N[C@@H](CCCCN)C(=O)Nc1ccccc1 [Example 67, Nα-{L-3-trans-[(S)-1-ethylcarbamoyl-2-phenylethylcarbamoyl]oxirane-2-carbonyl)-L-lysine anilide hydrochloride]"
8.5 nM,> 1177,> 10000 nM,"NCCCC[C@H](NC(=O)[C@H]1O[C@@H]1C(=O)N[C@@H](Cc1ccccc1)C(=O)NC1CCCCC1)C(=O)Nc1ccccc1 [Example 69, Nα-{L-3-trans-[(S)-1-cyclohexylcarbamoyl-2-phenylethylcarbamoyl]oxirane-2-carbonyl}-L-lysine anilide hydrochloride]"
